Here are results for one compound from US20180344715A1, “WNT/BETA-CATENIN SIGNAL TRANSDUCTION INHIBITORS AND THEIR USE IN TREATMENT OR PREVENTION OF DISEASES AND CONDITIONS LINKED WITH SAID TRANSDUCTION” (BERGEN TEKNOLOGIOVERFORING AS, priority 2015, published 2018).

Series [1] concerns SW480-7TGC cells. The experiment in a line: Flow cytometry of SW480-7TGC cells with Hoechst33342. In kind it is cell-based. Particulars: 24 hours.
Description: To establish stable cell lines containing Wnt reporters, lentiviral vector 7TGC or 7TC together with packaging plasmids pMD2.G and pCMVR8.74 were co-transfected into 293FT cells with lipofectamine 3000. After 16 hours, culture medium was replaced with medium for cells of interest. One day later, the culture medium was filtered through a 0.45 μm filter and incubated with cells for 24 hours. The transduced cells were assessed by fluorescence microscopy and fluorescence-activated cell sorting (FACS Aria, BD Biosciences).
The subject of the next series is Apc^min/+ mice. The series can be described thus: Apc min/+ mice study (intestinal adenomas, H&E and IHC). It is filed as in vivo. Particulars: 50 mg/kg daily for 5 weeks. The text has this:
C57BL/6-Apc^min/+ mice were obtained from the Model Animal Research Center of Nanjing University (Nanjing, China). Mice were housed and fed a standard rodent diet at the Animal Facility of the Second Military Medical University (Shanghai, China) in compliance with the institutional guidelines of the Animal Care and Use Committee. […] The mice were weighed weekly and monitored daily for any signs of illness. The mice were sacrificed at the last day of the treatment. The small intestines were dissected, washed in PBS, fixed in 4% PBS-buffered formaldehyde and embedded in paraffin using standard procedures.
H&E and IHC were performed according to the protocol previously described (Qu, Y. et al, supra). Primary antibodies used for IHC were β-catenin (ab16051, 1:1000, Abcam), Ki67 (ab16667, clone SP6, 1:100, Abcam) and BrdU (ab6326, clone BU1/75, 1:80, Abcam). Investigators were blinded when counting the intestinal adenomas and assessing the homeostasis of mice and fish intestine. Histologic images were captured using the Qcapture Suite software with a Qimaging Exi Blue camera attached to a Leica DMRBE microscope.

Series [2] relates to SW480-7TGC cells. The experiment in a line: Wnt ACD assay. In kind it is cell-based. Particulars: 5 μM; never found in control cells. The text has this: Unequal Wnt signaling was considered when paired cells had intensity ratio higher than 2.
Another series concerns SW480 cells. The series can be described thus: EdU label release assay, SW480. Particulars: SW480, 5 μM, 3 days; never found in control cells. In kind it is cell-based. The protocol: Two days later, cells were seeded singly onto 12 mm glass coverslips in 24-well plates. One day after, EdU was detected using the Click-iT® Plus EdU Alexa Fluor 488 Imaging Kit (Life Technologies, C10637) according to the manufacturer's protocol. For double staining of EdU and other proteins, the EdU stained cells were further used for immunofluorescence staining as described above. Intensity of EdU staining in paired cells were quantified by Photoshop CS6 software, unequal EdU distribution was considered when paired cells had intensity ratio higher than 2.

Another series deals with β-catenin. The experiment in a line: Immunofluorescence staining of β-catenin in SW480 cells. To be noted: SW480, 5 μM, 24 hours. It is filed as cell-based.
The target in another series is T1, MED23 (Homo sapiens, UniProt Q9ULK4).
T1 construct: endogenous in cells; host or cells: SW480
T1 sequence (Q9ULK4 1-1368): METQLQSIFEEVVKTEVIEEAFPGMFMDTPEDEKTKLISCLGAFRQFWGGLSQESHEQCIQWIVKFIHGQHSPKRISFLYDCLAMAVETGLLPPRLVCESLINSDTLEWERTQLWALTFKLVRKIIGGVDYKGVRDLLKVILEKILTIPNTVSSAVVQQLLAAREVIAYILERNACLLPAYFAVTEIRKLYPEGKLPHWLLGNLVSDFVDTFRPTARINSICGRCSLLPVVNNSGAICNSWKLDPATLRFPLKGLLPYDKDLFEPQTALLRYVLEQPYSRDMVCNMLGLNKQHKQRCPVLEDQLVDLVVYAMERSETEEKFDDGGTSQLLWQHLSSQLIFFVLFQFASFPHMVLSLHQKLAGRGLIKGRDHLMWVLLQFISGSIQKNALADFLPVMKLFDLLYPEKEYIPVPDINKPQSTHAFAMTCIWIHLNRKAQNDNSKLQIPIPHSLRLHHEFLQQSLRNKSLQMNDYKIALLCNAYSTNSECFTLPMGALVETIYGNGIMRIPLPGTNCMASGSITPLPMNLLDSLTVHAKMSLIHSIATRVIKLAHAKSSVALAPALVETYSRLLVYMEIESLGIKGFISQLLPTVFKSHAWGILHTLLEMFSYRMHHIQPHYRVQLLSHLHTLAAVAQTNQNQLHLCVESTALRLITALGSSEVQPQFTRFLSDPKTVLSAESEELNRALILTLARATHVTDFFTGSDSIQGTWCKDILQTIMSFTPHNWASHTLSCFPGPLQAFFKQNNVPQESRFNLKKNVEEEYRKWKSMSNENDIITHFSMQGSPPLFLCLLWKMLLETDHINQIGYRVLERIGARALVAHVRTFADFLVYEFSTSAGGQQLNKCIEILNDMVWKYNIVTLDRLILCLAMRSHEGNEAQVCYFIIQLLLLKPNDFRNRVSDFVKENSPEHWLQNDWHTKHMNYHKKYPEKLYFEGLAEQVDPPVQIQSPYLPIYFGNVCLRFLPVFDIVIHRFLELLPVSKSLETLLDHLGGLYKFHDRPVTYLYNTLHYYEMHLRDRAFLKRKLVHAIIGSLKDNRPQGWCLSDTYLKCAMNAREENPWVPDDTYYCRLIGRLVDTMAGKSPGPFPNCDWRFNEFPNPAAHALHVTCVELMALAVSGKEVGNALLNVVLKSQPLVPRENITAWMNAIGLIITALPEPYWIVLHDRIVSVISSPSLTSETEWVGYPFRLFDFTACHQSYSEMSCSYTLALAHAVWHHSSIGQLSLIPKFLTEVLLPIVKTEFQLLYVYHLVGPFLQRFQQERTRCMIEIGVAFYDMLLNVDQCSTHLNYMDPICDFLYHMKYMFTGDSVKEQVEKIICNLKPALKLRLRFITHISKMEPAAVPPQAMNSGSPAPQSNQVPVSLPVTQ
The series can be described thus: Chromatin immunoprecipitation (ChIP) of MED23 at Wnt target genes. To be noted: SW480, 5 μM overnight. It is filed as cell-based. As for the experimental part: ChIP was performed according to the protocol previously described with a few modifications on the crosslinking procedures (Ke, X. S. et al., 2009, PLoS One 4, e4687). […] The reaction was quenched with 1/50 volume of 2.5 M glycine. Cells were lysed and the nuclei were sonicated to fragments ranging from 200 bp to 500 bp. After saving 0.2% total chromatin for input DNA purification, sonicated lysates were equally divided to three tubes and immunoprecipitated with Protein G beads (Life technologies, 10004D) coupled with 5 μg mouse IgG (15381, Sigma), antibody against MED23(BD550429, clone D27-1805, BD Biosciences) and β-catenin (ab22656, clone 12F7, Abcam), respectively. The immunoprecipitated DNA was purified and examined by PCR described below.
To determine the purified DNA from ChIP samples, quantitative PCR was performed with RT^2 SYBR Green/ROX PCR Master Mix and the PCR reactions were examined by 2% agarose gel electrophoresis. PCR primers were designed to cover the canonical TCF/β-catenin binding motifs of 6 randomly chosen β-catenin target genes (shown in FIG. 4c). The sequences and genomic locations (NCBI36/hg18) of PCR primers are listed below. GAPDH was used as a negative control.

For another series, the system named is transgenic zebrafish. The series can be described thus: Tailfin regeneration assay in adult TCF-GFP transgenic zebrafish. To be noted: 5 μM.

Description for β-catenin: Cells were seeded singly on 12 mm glass coverslips in 24-well plates. At the second day, cells were washed with PBS, fixed in 4% PBS buffered paraformaldehyde at room temperature for 20 minutes, permeabilized in 0.5% Triton X-100 for 10 minutes, blocked in 100 mM glycine for 5 minutes and with PBS wash between each step. After blocking with 0.5% BSA/PBS for 15 minutes, cells were incubated with primary antibodies (β-catenin, ab16051, 1:1000, Abcam; Ki67, ab16667, clone SP6, 1:50, Abcam) in 0.5% BSA/PBS for 1 hour at room temperature. The FITC-labelled secondary antibody (Southern Biotech, 4050-02) was added for 45 minutes at room temperature. Coverslips were mounted in SlowFade® Diamond Antifade Mountant with DAPI (Life Technologies, S36964) on glass slides. Images were captured using the Qcapture Suite software with a Qimaging Exi Blue camera attached to a Leica DMRBE microscope.

As to `CNC(=O)c1ccccc1Sc1ccc2c(/C=C/c3ccccn3)n[nH]c2c1` [axitinib, N-Methyl-2-[[3-[(E)-2-pyridin-2-ylethenyl]-1H-indazol-6-yl]sulfanyl]benzamide], the “TCF-GFP^low cells” value in the series with SW480-7TGC cells [1] is given as “increased”. For the same compound, the “apoptosis in TCF-GFP^low cells” value in the series with SW480-7TGC cells [1] (Hoechst33342) is “induced apoptosis”. In the series on Apc^min/+ mice, the “normal-looking small intestine: mucosa organization, crypt density, distribution of Ki67 positive cells” value is on record as “no obvious change”; the “nuclear β-catenin in adenomas (IHC)” value is “reduced nuclear β-catenin”; the “staining of the proliferation marker Ki67 in adenomas” value is recorded as “Obviously weaker staining”. Also, the “numbers of multi-villus adenomas and microadenomas” value with Apc^min/+ mice (oral gavage) is given as “significantly decreased”. Besides, in the series with SW480-7TGC cells [2], the “paired cells with unequal TCF-GFP expression (Wnt ACD)” value is given as “up to 10%”. Further, in the series with SW480 cells, the “cells with unequal EdU labelling (EdU ACD)” value is recorded as “around 15%”. For the same compound, the “cells with unequal distribution of nuclear β-catenin (β-catenin ACD)” value in the series on β-catenin is listed as approximately 19%. Also, on MED23, the “MED23 occupancy at TCF/LEF-binding motifs of Wnt target genes” value is “reduced”. The “tailfin regrowth and TCF-GFP activation” value in the series with transgenic zebrafish (6 consecutive days) is “completely inhibited”. Also, the “intestine: crypt-villus architecture and incorporation of BrdU” value in the series with transgenic zebrafish (6 days) was “no significant change”.
